Reference: patent US12227769B2 (priority 2018, dated 2025)

Key:
[1] = tested on: Rous sarcoma virus, HIV-1, RSV, parainfluenza virus type 3, VSV, measles virus, and reovirus; conditions: shown previously [52, 53, 59]; cited from earlier work
[2] = tested on: rgRSV or rgRSV-G1857A-G1853A; assay type: cell-based, RSV A2 strain; conditions: 50 μg/ml Cc3Ado, day 3
[3] = tested on: rgRSV or rgRSV-G1857A-G1853A; assay type: cell-based, RSV A2 strain; conditions: 15 μg/ml Cc3Ado; rgRSV and rgRSV-G1853A-G1857A-infected cells; day 3
[4] = tested on: RIG-I; assay type: cell-based, human
[5] = molecular target: T1, Recombinant human RIG-I protein (Homo sapiens, UniProt O95786); test: Limited trypsin digestion of RIG-I:RNA complexes; assay type: biochemical; conditions: 2 h trypsin digestion, 2 mM AMP-PNP
T1 construct: trypsin treatment of the full-length RIG-I protein (approximately 110 kDa) yielded a 55-kDa RIG-I fragment; Flag; made in house; host or cells: HEK-293T
T1 sequence (O95786 1-925): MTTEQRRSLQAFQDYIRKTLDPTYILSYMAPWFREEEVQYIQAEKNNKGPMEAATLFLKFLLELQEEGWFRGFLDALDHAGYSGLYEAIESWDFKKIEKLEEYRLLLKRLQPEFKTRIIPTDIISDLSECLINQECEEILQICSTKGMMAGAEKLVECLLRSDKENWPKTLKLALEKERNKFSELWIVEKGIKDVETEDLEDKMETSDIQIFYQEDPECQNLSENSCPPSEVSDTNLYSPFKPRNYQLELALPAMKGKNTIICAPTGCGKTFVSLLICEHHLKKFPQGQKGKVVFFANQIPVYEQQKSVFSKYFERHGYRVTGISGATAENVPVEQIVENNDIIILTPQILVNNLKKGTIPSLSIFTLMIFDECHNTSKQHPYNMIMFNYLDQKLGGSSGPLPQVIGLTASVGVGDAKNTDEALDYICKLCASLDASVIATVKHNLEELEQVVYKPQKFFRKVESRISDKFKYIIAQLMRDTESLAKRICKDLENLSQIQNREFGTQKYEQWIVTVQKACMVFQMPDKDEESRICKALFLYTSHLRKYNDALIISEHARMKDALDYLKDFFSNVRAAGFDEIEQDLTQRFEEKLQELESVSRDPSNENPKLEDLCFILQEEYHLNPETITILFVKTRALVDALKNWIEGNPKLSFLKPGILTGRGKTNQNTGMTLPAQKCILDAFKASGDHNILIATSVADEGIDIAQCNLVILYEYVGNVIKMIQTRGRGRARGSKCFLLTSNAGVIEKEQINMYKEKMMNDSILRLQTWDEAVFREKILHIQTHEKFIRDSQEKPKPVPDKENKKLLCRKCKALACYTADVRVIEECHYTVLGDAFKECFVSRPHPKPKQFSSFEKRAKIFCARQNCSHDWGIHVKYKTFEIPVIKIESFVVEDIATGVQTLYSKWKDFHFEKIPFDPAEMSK

Nc1nccc2c1ncn2[C@@H]1O[C@H](CO)[C@@H](O)[C@H]1O [3-deazaadenosine]
inhibition of virus replication [1]: capable of inhibiting the replication of diverse viruses

Carbocyclic 3-deazaadenosine [Cc3Ado]
effect on GFP signal in rgRSV-G1853A-G1857A-infected HAE cells [2]: the GFP signal was further reduced
effect on RSV spread (GFP) in HEp-2 cells [3]: inhibited rgRSV spread over 3 days

Poly(I.C)
expression of RIG-I in RNA-transfected cells [4]: activated RIG-I expression in a dose-dependent manner
trypsin-resistant 80-kDa RIG-I fragment [5]: yielded an 80-kDa fragment
